This is an account of results in article PMC8406298, “Discovery of Fungus-Specific Targets and Inhibitors Using Chemical Phenotyping of Pathogenic Spore Germination” (mBio, 2021).

In experiment [1] the test system is Cryptococcus spores. Set-up: method as in PMID 31570398. The note with it: previous study; cited from earlier work.
Experiment [2] relates to Cryptococcus spores. The experiment in a line: Quantitative germination assay (QGA), automated microscopy of spore germination. Type of experiment: cell-based, Cryptococcus neoformans serotype D (deneoformans). The note with it: for germination inhibition phenotype (chemical phenotype) in QGA: at phenotypic concentration. The protocol: In this automated microscopy-based assay, germination progression of spores is monitored as a function of changes in cell morphology over time (spores are small and oval; yeast are large and circular). Individual spores in a population (∼1 × 10^4 per sample) are measured to determine size (area) and shape (aspect ratio) from the onset of germination, and the data are collected for each cell over the time of germination (Fig. 1A).
Germination assays were modified from those described by Barkal et al. to introduce automation, increase throughput, and refine assay consistency ([12]). Briefly, 384-well plates (Thermo Scientific 142762) were loaded with 10^5 spores per well, and at 0 h, synthetic medium plus 2% dextrose (SD medium) containing the compounds of interest was added to the sample (final volume of 40 μl). All compounds were tested initially at 80 μM; however, concentrations were changed on a case-by-case basis for subsequent experiments. All assays and controls were performed with a final concentration of 0.8% DMSO (the compound solvent) unless specified otherwise. Spores were germinated at 30°C in a humidified chamber, and the same ∼5 × 10^3 cells were monitored every 2 h for 16 h. Imaging was performed on a Ti2 Nikon microscope, and each condition was visualized in a minimum of two individual wells with three fields of view acquired from each well. All images were analyzed as described previously based on cell shape and size using ImageJ. The population ratios of spores, intermediates, and yeast were determined. Error bars in plots are based on the variation among all fields of view acquired. Level of germination was determined by quantifying the decrease in the proportion of spores in a population, and rates were quantified by determining the change in this proportion over time. For all two-dimensional histograms, the x axis represents area from 0 μm^2 to 25 μm^2, and the y axis represents the aspect ratio from 0.4 to 1.
Cycloheximide (0.078 μM to 80 μM) (Dot Scientific, Inc. DSC81040-1), G418 (1.6 mM) (Fisher Scientific AAJ6267106), and puromycin (20 mM) (Dot Scientific, Inc. DSP33020-0.025) were tested with no DMSO (all were water soluble), whereas anisomycin (62.5 μM) (Sigma-Aldrich A9789-5MG) was tested in 2.5% DMSO.
Furcarbanil (80 μM) (Sigma-Aldrich T313122), rotenone (10 μM) (Fisher Scientific 501687383), and antimycin A (2.5 μM) (Santa Cruz Biotechnology, Inc. sc-202467A) were all tested in 0.8% DMSO, and TTFA (200 μM) (Sigma-Aldrich 88300-5G) was tested in 3% DMSO.

The next experiment deals with Candida albicans. Set-up: method as in PMID 16876761. The note with it: cited from earlier work.
Experiment [3] concerns Cryptococcus spores harboring CNK01510-NL fusion. Put plainly: Nanoluciferase germination screen (HTS). Type of experiment: cell-based, Cryptococcus neoformans serotype D (deneoformans). An excerpt: To identify potential inhibitors of spore germination, a nanoluciferase (NL)-based high-throughput screening (HTS) assay was developed, and compounds from three libraries of structurally diverse, drug-like small molecules (LifeChem 1 to 3) were screened (see Fig. S1 in the supplemental material). For the assay, a previously identified protein (CNK01510) was fused to the nanoluciferase protein (Promega) and introduced into its endogenous locus in the Cryptococcus genome ([14]). Strains harboring the integrated NL protein fusion were crossed under sexual development conditions to produce spores. Spores from the NL strains yielded very little NL enzyme activity; however, yeast from those strains produced a robust NL signal. Most importantly, the amount of NL signal correlated with the germination state. As spores germinated into yeast, the levels of NL signal increased, resulting in a robust signal over baseline at the end of germination (∼14-fold) (Fig. S1). […] Secondary screens were performed on these hits to determine effects on yeast replication, cytotoxicity against mammalian fibroblasts, and direct inhibition of the NL enzyme (see Data Set S1).
Screening of the LifeChem libraries (Life Chemicals) was carried out with the assistance of the University of Wisconsin—Madison (UW-Madison) small-molecule screening facility. All NL screening was performed as described previously ([7]). […]

`CCN(CC)C(=S)SSC(=S)N(CC)CC` [disulfiram]: the “germination inhibition phenotype in QGA” value in the experiment on Cryptococcus spores [1] is listed as “slow-end”.

Regarding `O=C(CC(=O)C(F)(F)F)c1cccs1` [TTFA, thenoyltrifluoroacetone, reference compound], in the experiment with Cryptococcus spores [2], the “phenotypic concentration (concentration showing the germination phenotype in QGA)” value is 200 µM and the “germination inhibition phenotype (chemical phenotype) in QGA” value was “asynchrony”. For the same compound, the “effect on hyphal formation” value in the experiment with Candida albicans is “prevent hyphal formation”.

On to `C[C@@H]1C[C@@H]([C@H](O)CC2CC(=O)NC(=O)C2)C(=O)[C@@H](C)C1` [cycloheximide, reference compound], for which the “inhibition of germination (changes in size or shape)” value with Cryptococcus spores [2] (10 µM) was “full inhibition of germination”. Also, in the experiment with Cryptococcus spores [2] (Cryptococcus, 16 h, read-out: 50% inhibitory concentration (IC50) of spore germination), the IC50 is 1700 nM. In addition, in the experiment with Cryptococcus spores [2], the “germination inhibition phenotype (chemical phenotype) in QGA” value is given as “slow-down”. Moreover, the “NL signal in germination screen” value in experiment [3] was “low levels of NL signal”.
